# Data reported in PubChem BioAssay AID256 (DTP/NCI, 2004).
# “And” between values parts separate entries of the source, which are not always exact repeats. Equal entries are not always repeated. Inconclusive results and toxic doses are left out.
# Tested on: CD2F1 mice, L1210 leukemia ip, survival T/C
# Experiment: NCI In Vivo Anticancer Drug Screen. Data for tumor model L1210 Leukemia (intraperitoneal) in CD2F1 (CDF1) mice
# Conditions: higher = longer survival
# In short: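 Vehicle-treated tumor-bearing mice served as controls (C) for compound-treated mice (T). Reported figure is T divided by C.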
# [1] = endpoint: mean survival time, dose: 12.5 mg/kg/injection, schedule: Q01DX009 (ip), vehicle: saline
# [2] = endpoint: mean survival time, dose: 25.0 mg/kg/injection, schedule: Q01DX009 (ip), vehicle: saline
# [3] = endpoint: mean survival time, dose: 50.0 mg/kg/injection, schedule: Q01DX009 (ip), vehicle: saline
# [4] = endpoint: mean survival time, dose: 100.0 mg/kg/injection, schedule: Q04DX003 (ip), vehicle: saline with Tween-80
# [5] = endpoint: mean survival time, dose: 200.0 mg/kg/injection, schedule: Q04DX003 (ip), vehicle: saline with Tween-80
# [6] = endpoint: mean survival time, dose: 400.0 mg/kg/injection, schedule: Q04DX003 (ip), vehicle: saline with Tween-80
# [7] = endpoint: median survival time, dose: 100.0 mg/kg/injection, schedule: Q04DX003 (ip), vehicle: saline with Tween-80
# [8] = endpoint: mean survival time, dose: 200.0 mg/kg/injection, schedule: Q01DX009 (ip), vehicle: saline with Tween-80
# [9] = endpoint: mean survival time, dose: 100.0 mg/kg/injection, schedule: Q01DX009 (ip), vehicle: saline with Tween-80
# [10] = endpoint: mean survival time, dose: 25.0 mg/kg/injection, schedule: Q04DX003 (ip), vehicle: saline with Tween-80
# [11] = endpoint: mean survival time, dose: 100.0 mg/kg/injection, schedule: Q01DX009 (ip), vehicle: saline
smiles,measurement,setting,value
CO[C@@]12[C@@H]3N[C@@H]3CN1C1=C(C(=O)C(NCC3CCCO3)=C(C)C1=O)[C@@H]2COC(N)=O (some centres not stated),T/C,"endpoint: mean survival time, dose: 1.5 mg/kg/injection, schedule: Q01DX001 (ip), vehicle: distilled water + Tween-80",111 % of control
same,T/C,"endpoint: mean survival time, dose: 3.0 mg/kg/injection, schedule: Q01DX001 (ip), vehicle: distilled water + Tween-80",114 % of control and 116 % of control
same,T/C,"endpoint: mean survival time, dose: 6.0 mg/kg/injection, schedule: Q01DX001 (ip), vehicle: distilled water + Tween-80",121 % of control
same,T/C,"endpoint: mean survival time, dose: 36.0 mg/kg/injection, schedule: Q01DX001 (ip), vehicle: distilled water + Tween-80",158 % of control
S=C(NCNC(=S)c1ccncc1)c1ccncc1,T/C,"endpoint: median survival time, dose: 25.0 mg/kg/injection, schedule: Q01DX009 (ip), vehicle: saline with Tween-80",102 % of control
same,T/C,"endpoint: median survival time, dose: 50.0 mg/kg/injection, schedule: Q01DX009 (ip), vehicle: saline with Tween-80",103 % of control
same,T/C,"endpoint: median survival time, dose: 100.0 mg/kg/injection, schedule: Q01DX009 (ip), vehicle: saline with Tween-80",106 % of control
same,T/C,"endpoint: median survival time, dose: 200.0 mg/kg/injection, schedule: Q01DX009 (ip), vehicle: saline with Tween-80",104 % of control
same,T/C,"endpoint: median survival time, dose: 400.0 mg/kg/injection, schedule: Q01DX009 (ip), vehicle: saline with Tween-80",104 % of control
O=C1CCCCc2c1ccc(O)c2[N+](=O)[O-],T/C,[1],113 % of control
same,T/C,[2],106 % of control
same,T/C,[3],97 % of control
O=C1OC2CCC13CCCCC3C2 (configuration not stated),T/C,[4],96 % of control
same,T/C,[5],88 % of control
same,T/C,[6],86 % of control
CCCCC1(C(C)CC(C)(C)C)NC(C)(C)CC(C)O1 (configuration not stated),T/C,"endpoint: mean survival time, dose: 25.0 mg/kg/injection, schedule: Q04DX002 (ip), vehicle: saline",104 % of control
same,T/C,"endpoint: mean survival time, dose: 50.0 mg/kg/injection, schedule: Q04DX002 (ip), vehicle: saline",101 % of control
same,T/C,"endpoint: mean survival time, dose: 100.0 mg/kg/injection, schedule: Q04DX002 (ip), vehicle: saline",89 % of control
same,T/C,[4],101 % of control
COc1c(C)c(Br)c(OC)c2ccccc12,T/C,[4],94 % of control
same,T/C,[5],94 % of control
same,T/C,[6],100 % of control
Cc1cc(/C=C/c2ccc3cc(N(C)C)ccc3[n+]2C)c(C)n1-c1ccccc1,T/C,"endpoint: mean survival time, dose: 0.1 mg/kg/injection, schedule: Q01DX009 (ip), vehicle: saline with Tween-80",95 % of control
same,T/C,"endpoint: mean survival time, dose: 0.2 mg/kg/injection, schedule: Q01DX009 (ip), vehicle: saline with Tween-80",95 % of control
same,T/C,"endpoint: mean survival time, dose: 0.39 mg/kg/injection, schedule: Q01DX009 (ip), vehicle: saline with Tween-80",98 % of control
same,T/C,"endpoint: mean survival time, dose: 0.78 mg/kg/injection, schedule: Q01DX009 (ip), vehicle: saline with Tween-80",101 % of control
O=C(O)Cc1ccc(O)c(O)c1.[Pt].c1ccc([PH+](c2ccccc2)c2ccccc2)cc1.c1ccc([PH+](c2ccccc2)c2ccccc2)cc1,T/C,"endpoint: median survival time, dose: 10.0 mg/kg/injection, schedule: Q04DX003 (ip), vehicle: saline with Tween-80",103 % of control
same,T/C,"endpoint: median survival time, dose: 20.0 mg/kg/injection, schedule: Q04DX003 (ip), vehicle: saline with Tween-80",95 % of control
same,T/C,"endpoint: median survival time, dose: 40.0 mg/kg/injection, schedule: Q04DX003 (ip), vehicle: saline with Tween-80",101 % of control
same,T/C,"endpoint: median survival time, dose: 50.0 mg/kg/injection, schedule: Q04DX003 (ip), vehicle: saline with Tween-80",94 % of control
same,T/C,"endpoint: median survival time, dose: 80.0 mg/kg/injection, schedule: Q04DX003 (ip), vehicle: saline with Tween-80",94 % of control
same,T/C,[7],94 % of control
same,T/C,"endpoint: median survival time, dose: 200.0 mg/kg/injection, schedule: Q04DX003 (ip), vehicle: saline with Tween-80",97 % of control
same,T/C,"endpoint: median survival time, dose: 400.0 mg/kg/injection, schedule: Q04DX003 (ip), vehicle: saline with Tween-80",89 % of control
CC(=O)N(Cc1ccccn1)N=O,T/C,"endpoint: mean survival time, dose: 75.0 mg/kg/injection, schedule: Q01DX001 (ip), vehicle: water",112 % of control
same,T/C,"endpoint: mean survival time, dose: 150.0 mg/kg/injection, schedule: Q01DX001 (ip), vehicle: water",122 % of control
O=C(Cc1ccccc1)SC(=O)Cc1ccccc1,T/C,"endpoint: mean survival time, dose: 100.0 mg/kg/injection, schedule: Q01DX001 (ip), vehicle: saline with Tween-80",102 % of control
same,T/C,"endpoint: mean survival time, dose: 200.0 mg/kg/injection, schedule: Q01DX001 (ip), vehicle: saline with Tween-80",94 % of control
same,T/C,"endpoint: mean survival time, dose: 400.0 mg/kg/injection, schedule: Q01DX001 (ip), vehicle: saline with Tween-80",102 % of control
CCNCC(=O)O[C@]1(CC)C(=O)OCc2c1cc1n(c2=O)Cc2cc3ccccc3nc2-1,T/C,"endpoint: median survival time, dose: 7.5 mg/kg/injection, schedule: Q04DX002 (ip), vehicle: saline",122 % of control and 110 % of control
same,T/C,"endpoint: median survival time, dose: 7.5 mg/kg/injection, schedule: Q04HX004 (iv), vehicle: dextrose",164 % of control
same,T/C,"endpoint: median survival time, dose: 7.5 mg/kg/injection, schedule: Q04HX004 (iv), vehicle: other",179 % of control
same,T/C,"endpoint: median survival time, dose: 15.0 mg/kg/injection, schedule: Q04DX002 (ip), vehicle: saline",117 % of control
same,T/C,"endpoint: median survival time, dose: 15.0 mg/kg/injection, schedule: Q04HX004 (iv), vehicle: dextrose",198 % of control
same,T/C,"endpoint: median survival time, dose: 15.0 mg/kg/injection, schedule: Q04HX004 (iv), vehicle: other",195 % of control
same,T/C,"endpoint: median survival time, dose: 30.0 mg/kg/injection, schedule: Q04DX002 (ip), vehicle: saline",170 % of control and 172 % of control
same,T/C,"endpoint: median survival time, dose: 30.0 mg/kg/injection, schedule: Q04HX004 (iv), vehicle: dextrose",208 % of control
same,T/C,"endpoint: median survival time, dose: 30.0 mg/kg/injection, schedule: Q04HX004 (iv), vehicle: other",223 % of control
same,T/C,"endpoint: median survival time, dose: 40.0 mg/kg/injection, schedule: Q04HX004 (iv), vehicle: other",235 % of control
C#CC1(OC(=O)c2ccccc2)CCCCC1,T/C,[4],98 % of control
same,T/C,[5],96 % of control
same,T/C,[6],102 % of control
Nc1ncnc2c1[nH]c(=S)n2C1OC(CO)C(O)C1O (configuration not stated),T/C,"endpoint: mean survival time, dose: 100.0 mg/kg/injection, schedule: Q04DX002 (ip), vehicle: saline with Tween-80",107 % of control
same,T/C,"endpoint: mean survival time, dose: 200.0 mg/kg/injection, schedule: Q04DX002 (ip), vehicle: saline with Tween-80",103 % of control
same,T/C,"endpoint: mean survival time, dose: 400.0 mg/kg/injection, schedule: Q04DX002 (ip), vehicle: saline with Tween-80",100 % of control
CCCCC(CCCC)(C(=O)NC)c1ccccc1,T/C,[4],95 % of control
same,T/C,[5],97 % of control
same,T/C,[6],90 % of control
S=c1nc[nH]c2c1ncn2CN1CCCCC1,T/C,[8],116 % of control
Cc1cccc(N2CCN(CCO)CC2)c1,T/C,[1],109 % of control
same,T/C,[2],102 % of control
same,T/C,[3],100 % of control
COc1cc(OC)c(NC(=O)Nc2ccccc2C(N)=O)cc1Cl,T/C,"endpoint: mean survival time, dose: 50.0 mg/kg/injection, schedule: Q01DX009 (ip), vehicle: saline with Tween-80",111 % of control
same,T/C,[9],96 % of control
same,T/C,[8],100 % of control
O=C(NC(Cc1ccccc1)C(=O)CCl)OCc1ccccc1 (configuration not stated),T/C,[10],97 % of control
same,T/C,"endpoint: mean survival time, dose: 50.0 mg/kg/injection, schedule: Q04DX003 (ip), vehicle: saline with Tween-80",100 % of control
same,T/C,[4],109 % of control
[C-]#[O+].[Cl][Sn]([Cl])[Cl].[Cl][Sn]([Cl])[Cl].[Pt].c1cnc2c(c1)ccc1cccnc12,T/C,"endpoint: median survival time, dose: 3.12 mg/kg/injection, schedule: Q04DX003 (ip), vehicle: saline with Tween-80",113 % of control
same,T/C,"endpoint: median survival time, dose: 6.25 mg/kg/injection, schedule: Q04DX003 (ip), vehicle: saline with Tween-80",109 % of control
same,T/C,"endpoint: median survival time, dose: 12.5 mg/kg/injection, schedule: Q04DX003 (ip), vehicle: saline with Tween-80",109 % of control
same,T/C,[7],106 % of control
O=C(c1ccc(O)cc1O)c1ccc(O)cc1O,T/C,[3],104 % of control
same,T/C,[11],96 % of control
same,T/C,"endpoint: mean survival time, dose: 200.0 mg/kg/injection, schedule: Q01DX009 (ip), vehicle: saline",93 % of control
CNc1c2c(nc3ccccc13)CCCC2,T/C,"endpoint: mean survival time, dose: 5.0 mg/kg/injection, schedule: Q04DX003 (ip), vehicle: saline with Tween-80",96 % of control
CC(=O)Nc1ccccc1-c1ccccc1,T/C,[9],96 % of control
same,T/C,[4],92 % of control
same,T/C,[8],104 % of control
same,T/C,[5],95 % of control
same,T/C,"endpoint: mean survival time, dose: 400.0 mg/kg/injection, schedule: Q01DX009 (ip), vehicle: saline with Tween-80",103 % of control
same,T/C,[6],94 % of control
CC(C)N(CCCC#N)C(C)C,T/C,[3],96 % of control
same,T/C,[11],95 % of control
same,T/C,[4],97 % of control
same,T/C,[5],89 % of control
O=C1C(Cl)=CC(=NS(=O)(=O)c2ccccc2)C=C1Cl,T/C,"endpoint: mean survival time, dose: 6.25 mg/kg/injection, schedule: Q04DX003 (ip), vehicle: saline with Tween-80",100 % of control
same,T/C,"endpoint: mean survival time, dose: 12.5 mg/kg/injection, schedule: Q04DX003 (ip), vehicle: saline with Tween-80",94 % of control
same,T/C,[10],103 % of control
COc1ccc(NC(=O)c2ccccc2)c([N+](=O)[O-])c1,T/C,[4],105 % of control
same,T/C,[5],97 % of control
same,T/C,[6],94 % of control
